The test system of data set [1] is Psecidoperonospora cubensis. Briefly: Effect on Cucumber downy mildew (preventive spray test). Format: in vivo. To be noted: 7 days after inoculation.
For a further data set, the system named is Puccinia recondita. Kind of data set: Effect on Wheat brown rust (preventive spray test). The data set is classed as in vivo. Conditions: 7 days after inoculation.
In a further data set the test system is Puccinia recondite. Briefly: Penetration and translocation in wheat leaves (covered leaf tip, brown rust). To be noted: conc. of active ingredient 200 ppm. Format: in vivo.
The next data set relates to Chochliobolus miyabeanus. Briefly: Effect on Rice brown spot (preventive spray test). Format: in vivo. Conditions: 7 days after inoculation.
The subject of another data set is Botrytis cinerea. Kind of data set: Effect on Cucumber gray mold (cotyledon paper disc test). Format: in vivo. Conditions: 3 days after inoculation.
Another data set has as its system Erysiphe graminis. Kind of data set: Effects on Barley powdery mildew (preventive spray test). The data set is classed as in vivo. Conditions: lesions counted seven days after inoculation.
The next data set relates to Phytophthora infestans. The data set is classed as in vivo. To be noted: Tomato late blight, 5 days after inoculation.
The subject of data set [2] is Pseudoperonospora cubenis. Kind of data set: Penetration and translocation in cucumber leaf (drop on back of leaf, downy mildew). Format: in vivo. To be noted: 10 μl drop on back of leaf, conc. of active ingredient 200 ppm, disease-free area 5 days after the spraying. Further details: key: 3: At least 40% of the area of the leaf was free from the disease.; 20 to 40% of the area of the leaf was free from the disease.; 1: An area larger than the spot of the drop but smaller than 20% of the area of the leaf was free from the disease.; 0: Only the spot of the drop was free from the disease. On the procedure:
Four points were marked at random on the first leaf of each cucumber seedling (variety: Shogoin aonaga fushinari) in two-leaf stage in each pot having a diameter of 6 cm. […] The leaf was kept in a greenhouse for one day and then uniformly inoculated with a zoospore suspension of Pseudoperonospora cubenis by means of a spray gun, then left to stand in a high-humidity room at 24° C. for 24 hours, and kept in a greenhouse. The area of the disease-free part 5 days after the spraying was represented in terms of the index.
3: At least 40% of the area of the leaf was free from the disease.
2: 20 to 40% of the area of the leaf was free from the disease.
1: An area larger than the spot of the drop but smaller than 20% of the area of the leaf was free from the disease.
0: Only the spot of the drop was free from the disease.

The test system of a further data set is Pyricularia oryzae. The data set is classed as in vivo. To be noted: Rice blast, 7 days after inoculation.
A further data set concerns Rhizoctonia solani. Kind of data set: Effect on Rice sheath blight (preventive spray test). Conditions: 10 days after inoculation.
A further data set deals with Aphis gossypii. Kind of data set: Effect on Aphis gossypii (cucumber seedling spray). To be noted: Test Example 15.
Another data set deals with Nephotettix cincticeps. Kind of data set: Effect on Nephotettix cincticeps (rice seedling immersion). To be noted: Test Example 14.
The subject of another data set is Plutella xylostella. Briefly: Effect on Plutella xylostella (Chinese cabbage leaf spray). To be noted: Test Example 13.
For the next data set, the system named is Spodoptera litura. Kind of data set: Effect on Spodoptera litura (chinese cabbage leaf spray). To be noted: Test Example 12.
A further data set concerns Tetranychus kanzawai. Briefly: Effect on Tetranychus kanzawai (green bean leaf spray). To be noted: Test Example 11.
[3] abbreviates: conc. of active ingredient 4 ppm.
Setting [4] is: conc. of active ingredient 20 ppm.
Where [5] appears, read: conc. of active ingredient 100 ppm.

As a reminder, the melting point is the temperature of the solid-liquid transition.

Where two headings read alike, the source gives them in different places.

From the text for Aphis gossypii: 5 or 6 imagoes of Aphis gossypii were released on a cucumber seedling of 1- or 2-leaf stage in a pot. Two days after, the larvae were confirmed and the imagoes were removed. Then 500 ppm or 50 ppm of a compound of the present invention in the form of an emulsion diluted with water was sprayed on the cucumber seedling. After air-drying, the leaves were cut and put in a plastic vessel having a size of 9 cm (inner diameter)×6.5 cm (depth). The lid was put on the vessel, which was then left in a room kept at 26° C. for 48 hours and then the numbers of the living imagoes and dead ones were counted, and the rate of dead imagoes was calculated (repetition: twice).
Method for Nephotettix cincticeps: Rice plant seedlings were immersed in 500 ppm or 50 ppm of a compound of the present invention in the form of an emulsion diluted with water for 10 seconds. After air-drying, the root of each seedling was covered with a wet absorbent cotton and the seedling was put in a test tube. Ten larvae of Nephotettix cincticeps of the second instar were put therein. The opening of the test tube was covered with a gauze, and the test tube was then left in a room kept at 26° C. for 48 hours and then the numbers of the living imagoes and dead ones were counted, and the rate of dead imagoes was calculated (repetition: twice).
Method for Plutella xylostella: 500 ppm or 50 ppm of a compound of the present invention in the form of an emulsion diluted with water was sprayed on a leaf of Chinese cabbage seedling in 3- to 4-leaf stage. After air-drying, the leaf was placed in a plastic vessel having a size of 9 cm (inner diameter)×6.5 cm (depth). Ten larvae of Plutella xylostella of the third instar were put therein. The lid was put on the vessel, which was then left in a room kept at 26° C. for 48 hours and then the numbers of the living imagoes and dead ones were counted, and the rate of dead imagoes was calculated (repetition: twice).
Method for Spodoptera litura: 500 ppm of a compound of the present invention in the form of an emulsion diluted with water was sprayed on a leaf of chinese cabbage seedling in 3- to 4-leaf stage. After air-drying, the leaf was placed in a plastic vessel having a size of 21 cm(length)×13 cm(width)×3 cm (depth). Ten larvae of Spodoptera litura of the third instar were put therein. The lid was put on the vessel, which was then left in a room kept at 26° C. for 48 hours and then the numbers of the living imagoes and dead ones were counted, and the rate of dead imagoes was calculated (repetition: twice).
Method for Tetranychus kanzawai: A piece (3 cm×5 cm) of green bean leaf was placed with the backside up, on a filter paper wet with water so as to prevent the leaf from drying, and inoculated with 10 female imagoes of Tetranychus kanzawai per a leaf. 24 hours after the inoculation, 500 ppm of a compound of the present invention in the form of an emulsion diluted with water was sprayed thereon. After air-drying, the piece was left to stand in a room kept at 26° C. for 24 hours and then the numbers of the living imagoes and dead ones were counted, and the rate of dead imagoes was calculated (repetition: twice).

Consider `CNC(=O)/C(=N/OC)c1ccccc1COc1ccc2c(c1C)OCC2=NOC` [a-16], for which the “Preventive rate (%)” value (in data set [1] (setting [3]); in data set [1] (setting [4]); in data set [1] (setting [5]); in the data set on Puccinia recondita (setting [3]); in the data set on Puccinia recondita (setting [4]); in the data set on Puccinia recondita (setting [5])) was 100% throughout. Also, the “Preventive rate (%)” value in the data set on Puccinia recondite stood at 100%; in the data set with Chochliobolus miyabeanus (setting [3]), 75%; with Chochliobolus miyabeanus (setting [4]) it was 95%; with Chochliobolus miyabeanus (setting [5]), 98%; in the data set on Botrytis cinerea (setting [3]), 42%; in the data set on Botrytis cinerea (setting [4]), 84%. The “Preventive rate (%)” value in the data set with Botrytis cinerea (setting [5]) is reported as 87%; with Erysiphe graminis (setting [4]), 100%; in the data set on Erysiphe graminis (setting [5]), 100%; with Phytophthora infestans (setting [3]) it was 91%; in the data set with Phytophthora infestans (setting [4]), 97%; in the data set on Phytophthora infestans (setting [5]), 100%. The “Preventive rate (%)” value amounted to 86% in the data set on Pyricularia oryzae (setting [3]); 89% with Pyricularia oryzae (setting [4]); 96% in the data set on Pyricularia oryzae (setting [5]); 50% in the data set with Rhizoctonia solani (setting [4]); 92% in the data set with Rhizoctonia solani (setting [5]). Also, the “Number of lesions formed within the mark to the tip” value (“Number” for short) in the data set on Puccinia recondite was 0. In addition, the “Rate of the translocation perfect preventive conc. (%)” value with Puccinia recondite was 100%. For the same compound, the Index in data set [2] is 3 (At least 40% of the area of the leaf was free from the disease.).
`CNC(=O)/C(=N/OC)c1ccccc1COc1ccc2c(c1)OCC2=NOC` [a-5, (E) methoxyimino-[2-(3-methoxyimino-2,3-dihydro-benzofuran-6-yloxymethyl)phenyl]-N-methyl-acetamide]: the melting point lay in the range of 143 to 145 °C. Besides, the “Preventive rate (%)” value in [1] (setting [4]) is given as 88%. Moreover, the “Preventive rate (%)” value in data set [1] (setting [5]) is 94%. Also, the “Preventive rate (%)” value in the data set on Puccinia recondita (setting [4]) is recorded as 100%. Further, the “Preventive rate (%)” value with Puccinia recondita (setting [5]) is given as 100%. In addition, in the data set with Puccinia recondite, the “Number” value is 0, the “Preventive rate (%)” value came out at 100% and the “Rate of the translocation perfect preventive conc. (%)” value came out at 100%. For the same compound, the “Preventive rate (%)” value with Chochliobolus miyabeanus (setting [4]) is 89%. Moreover, the “Preventive rate (%)” value in the data set with Chochliobolus miyabeanus (setting [5]) amounted to 96%. For the same compound, the “Preventive rate (%)” value in the data set with Erysiphe graminis (setting [4]) amounted to 95%. Moreover, the “Preventive rate (%)” value in the data set on Erysiphe graminis (setting [5]) is on record as 100%. Further, the “Preventive rate (%)” value with Phytophthora infestans (setting [4]) stood at 97%. Moreover, the “Preventive rate (%)” value in the data set on Phytophthora infestans (setting [5]) turned out to be 100%. The Index in data set [2] was 3 (At least 40% of the area of the leaf was free from the disease.). In addition, the “Preventive rate (%)” value with Pyricularia oryzae (setting [4]) amounted to 90%. Also, the “Preventive rate (%)” value in the data set with Pyricularia oryzae (setting [5]) is reported as 96%. In the data set on Rhizoctonia solani (setting [4]), the “Preventive rate (%)” value is recorded as 70%. For the same compound, in the data set on Rhizoctonia solani (setting [5]), the “Preventive rate (%)” value was found to be 84%.
With `CNC(=O)C(=NOC)c1ccccc1COc1ccc2c(c1)CCC2=NOC` [e-5], the “Preventive rate (%)” value stood at 100% in data set [1] (setting [4]); 100% in data set [1] (setting [5]); 99% with Puccinia recondita (setting [4]); 100% in the data set on Puccinia recondita (setting [5]); 100% with Puccinia recondite; 84% in the data set on Chochliobolus miyabeanus (setting [4]). Moreover, the “Preventive rate (%)” value was found to be 90% with Chochliobolus miyabeanus (setting [5]); 95% in the data set with Erysiphe graminis (setting [4]); 100% with Erysiphe graminis (setting [5]); 95% in the data set on Phytophthora infestans (setting [4]); 98% in the data set with Phytophthora infestans (setting [5]); 97% in the data set on Pyricularia oryzae (setting [4]). Also, the “Preventive rate (%)” value with Pyricularia oryzae (setting [5]) was 100%. Moreover, in the data set on Puccinia recondite, the “Number” value is listed as 0. Moreover, the “Rate of the translocation perfect preventive conc. (%)” value in the data set with Puccinia recondite is reported as 100%. Besides, the Index in data set [2] is 3 (At least 40% of the area of the leaf was free from the disease.).
Regarding `CNC(=O)C(=NOC)c1ccccc1COc1ccc2c(c1)OCCC2=NOC` [c-5], the “Preventive rate (%)” value in [1] (setting [4]) was found to be 100%; in [1] (setting [5]), 100%; in the data set with Puccinia recondita (setting [4]), 96%; with Puccinia recondita (setting [5]), 100%; with Puccinia recondite, 100%; in the data set with Chochliobolus miyabeanus (setting [4]) it was 35%. Besides, the “Preventive rate (%)” value in the data set on Chochliobolus miyabeanus (setting [5]) is 100%; in the data set on Phytophthora infestans (setting [4]) it was 88%; in the data set on Phytophthora infestans (setting [5]), 94%; in the data set with Pyricularia oryzae (setting [4]), 97%; with Pyricularia oryzae (setting [5]), 99%; in the data set with Rhizoctonia solani (setting [4]), 39%. The “Preventive rate (%)” value in the data set with Rhizoctonia solani (setting [5]) is given as 89%. Moreover, the “Number” value in the data set with Puccinia recondite amounted to 0. In addition, the “Rate of the translocation perfect preventive conc. (%)” value in the data set with Puccinia recondite amounted to 100%. For the same compound, in [2], the Index is given as 3 (At least 40% of the area of the leaf was free from the disease.).
Turning to `CNC(=O)/C(=N/OC)c1ccccc1COc1ccc2c(c1)CCC2` [comparative compound (1), 2-methoxyimino-2-[2-(indane-5-yloxymethyl)-phenyl]-acetic acid methylamide, reference compound], the “Preventive rate (%)” value in data set [1] (setting [4]) was 30%; in [1] (setting [5]), 81%; with Puccinia recondita (setting [4]), 86%; in the data set on Puccinia recondita (setting [5]), 99%; with Puccinia recondite, 23%; in the data set with Chochliobolus miyabeanus (setting [4]) it was 0%. The “Preventive rate (%)” value in the data set on Chochliobolus miyabeanus (setting [5]) was 64%; in the data set with Botrytis cinerea (setting [4]), 25%; in the data set with Botrytis cinerea (setting [5]), 44%; in the data set with Erysiphe graminis (setting [4]), 17%; in the data set with Erysiphe graminis (setting [5]), 99%; in the data set on Phytophthora infestans (setting [4]) it was 63%. Besides, the “Preventive rate (%)” value in the data set with Phytophthora infestans (setting [5]) was found to be 94%; in the data set on Pyricularia oryzae (setting [4]), 48%; in the data set on Pyricularia oryzae (setting [5]), 63%; with Rhizoctonia solani (setting [4]), 0%; with Rhizoctonia solani (setting [5]), 24%. In addition, the “effect of controlling insect pests” value in the data set with Aphis gossypii, in the data set with Nephotettix cincticeps, in the data set on Plutella xylostella, in the data set on Spodoptera litura and in the data set on Tetranychus kanzawai was “did not exhibit the effect of controlling insect pests” each time. The “Number” value in the data set with Puccinia recondite came to 48. Further, in the data set with Puccinia recondite, the “Rate of the translocation perfect preventive conc. (%)” value came to 4.4%. The compound also came in with an Index in data set [2] of 0.
As for `CO/N=C(\C(=O)OC)c1ccccc1COc1ccc2c(c1)CCCC2` [comparative compound (2), 2-methoxyimino-2-[2-(5,6,7,8-tetrahydronaphthalene-2-yloxymethyl)phenyl]-methylacetate, reference compound], the “Preventive rate (%)” value in data set [1] (setting [4]) is recorded as 70%; in data set [1] (setting [5]), 93%; in the data set with Puccinia recondita (setting [4]) it was 70%; in the data set on Puccinia recondita (setting [5]), 100%; in the data set with Chochliobolus miyabeanus (setting [4]), 20%; with Chochliobolus miyabeanus (setting [5]), 85%. Also, the “Preventive rate (%)” value is 11% with Botrytis cinerea (setting [4]); 21% with Botrytis cinerea (setting [5]); 59% in the data set with Erysiphe graminis (setting [4]); 100% in the data set with Erysiphe graminis (setting [5]); 38% in the data set on Phytophthora infestans (setting [4]); 100% with Phytophthora infestans (setting [5]). For the same compound, the “Preventive rate (%)” value is on record as 49% in the data set with Pyricularia oryzae (setting [4]), 55% in the data set on Pyricularia oryzae (setting [5]), 0% in the data set with Rhizoctonia solani (setting [4]) and 0% with Rhizoctonia solani (setting [5]). Moreover, the “effect of controlling insect pests” value with Aphis gossypii, in the data set with Nephotettix cincticeps, with Plutella xylostella, in the data set on Spodoptera litura and with Tetranychus kanzawai was “did not exhibit the effect of controlling insect pests” in each case.

The values are drawn from patent US6399542B1, “Alkoxyimino-substituted bicyclic compounds compositions containing the same and method of making such compounds” (Agro-Kanesho Co., Ltd., priority 1997, dated 2002).
